Assay results reported in US20240287089A1, “Preparation and Uses of 7-Azaindenoisoquinolines” (Purdue Research Foundation, priority 0001, published 2024).
Read-outs that look alike come from different tables or passages of the source.

What was measured:
NCI-60 cancer cell lines = assay: NCI-60 cytotoxicity assay, MGM; type: cell-based; details: Homo sapiens; read-out: MGM (average GI50 across NCI-60 panel)
Summary of the method: (§1)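 Five concentrations from 100 μM to 10 nM, 48 h exposure. Growth measured by sulforhodamine B staining and percentage growth plotted against log concentration to give GI50. MGM is the approximate mean GI50 across the full NCI-60 panel.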

MCF7 (Breast) = assay: NCI-60 cytotoxicity assay; type: cell-based, human; details: Breast MCF7, 48 h, read-out: Cytotoxicity GI50
Summary of the method: as §1

OVCAR-3 (Ovarian) = assay: NCI-60 cytotoxicity assay; type: cell-based, human; details: Ovarian OVCAR-3, 48 h, read-out: Cytotoxicity GI50
Summary of the method: as §1

UACC-62 (Melanoma) = assay: NCI-60 cytotoxicity assay; type: cell-based, human; details: Melanoma UACC-62, 48 h, read-out: Cytotoxicity GI50
Summary of the method: as §1

SN12C (Renal) = assay: NCI-60 cytotoxicity assay; type: cell-based, human; details: Renal SN12C, 48 h, read-out: Cytotoxicity GI50
Summary of the method: as §1

HCT-116 (Colon) = assay: NCI-60 cytotoxicity assay; type: cell-based, human; details: Colon HCT-116, 48 h, read-out: Cytotoxicity GI50
Summary of the method: as §1

HOP-62 (Lung) = assay: NCI-60 cytotoxicity assay; type: cell-based, human; details: Lung HOP-62, 48 h, read-out: Cytotoxicity GI50
Summary of the method: as §1

DU-145 (Prostate) = assay: NCI-60 cytotoxicity assay; type: cell-based, human; details: Prostate DU-145, 48 h, read-out: Cytotoxicity GI50
Summary of the method: as §1

SF-539 (CNS) = assay: NCI-60 cytotoxicity assay; type: cell-based; details: Homo sapiens; CNS SF-539, 48 h; read-out: Cytotoxicity GI50
Summary of the method: as §1

[1] = Maximum tolerated dose determination in NOD SCID mice; type: in vivo; details: QD x 5; for Body Weight %: 7 days after first dose; for Maximum tolerated dose (MTD): NOD SCID mice, IV, body weight % ≥80%
Procedure: Maximum Tolerated Dose Determinations. […]. […] Experiments involving 100 mg/kg doses of all three drugs were terminated after one day because of toxicity, while the study involving 50 mg/kg dose of G105 was also halted after one day (FIG. 12). Similarly, the investigation with a 40 mg/kg dose of G105 was discontinued after two days (FIG. 13).

in vivo = type: in vivo
[2] = human, 6 h, 1 μM; for % Bound: plasma
Procedure: (§2) Analysis of Plasma Protein Binding and Stability in Human and Mouse Blood Plasma by Equilibrium Dialysis. Frozen plasma (stored at −80° C.) was thawed immediately in a 37° C. water bath. The working solutions of test compound and control compound were prepared in DMSO at 200 μM concentration, and the working solutions were spiked into plasma. The final concentration of compound was 1 μM. The final concentration of DMSO was 0.5%. Ketoconazole was used as positive control in the assay. The dialysis membranes were soaked in ultrapure water for 60 min to separate strips, then in 20% ethanol for 20 min, and then finally in dialysis buffer for 20 min. For equilibrium dialysis, each cell contained plasma sample (150 μL) and was dialyzed against an equal volume of dialysis buffer (PBS). The assay was performed in duplicate. The dialysis plate was sealed and incubated at 37° C. with 5% CO2 at 100 rpm for 6 h. At the end of incubation, samples (50 μL) from both buffer and plasma chambers were transferred to wells of a 96-well plate. Plasma (50 μL) was added to each buffer sample and an equal volume of PBS was added to the collected plasma sample. Cold acetonitrile (400 μL) containing internal standards (IS, 100 nM alprazolam, 200 nM labetalol, 200 nM imipramine and 2 μM ketoprofen) was added to precipitate protein and release compounds. Samples were vortexed for 2 min and centrifuged for 30 min at 3,220 g. An aliquot (100 μL) of the supernatant was diluted with ultra-pure H2O (100 μL), and the mixture was used for LC-MS/MS analysis. For stability determination in plasma, a spiked plasma sample (50 μL) was transferred to a new plate and incubated at 37° C., 5% CO2 for 0 and 6 h. At designated time points, PBS (50 μL) was added and mixed thoroughly, followed by the addition of room temperature quench solution [400 μL of acetonitrile containing internal standards (IS, 100 nM alprazolam, 200 nM labetalol, 200 nM imipramine and 2 μM ketoprofen)] to precipitate protein and release compounds. Samples were vortexed for 2 min and centrifuged for 30 min at 3,220 g. An aliquot (400 μL) of the supernatant was diluted by ultra-pure H2O, and the mixture was used for LC-MS/MS analysis. The concentrations of test compounds in the buffer and plasma chambers were determined from peak area ratios.

[3] = human, 1 μM
Procedure: as §2

`CCNCCCn1c2c(c3cc(OC)c(OC)cc3c1=O)C(=O)c1cc3c(nc1-2)OCO3` [G104, 6-(3-(Ethylamino)propyl)-2,3-dimethoxy-5H-[1,3]dioxolo[4″,5″:5′,6′]pyrido [3′,2′:4,5]cyclopenta[1,2-c]isoquinoline-5,12(6H)-dione] showed a GI50 (NCI-60 cancer cell lines) of 1450 nM, a GI50 (MCF7 (Breast); Homo sapiens) of 75 nM and a GI50 (OVCAR-3 (Ovarian); Homo sapiens) of 11.3 µM. It also gave a GI50 (UACC-62 (Melanoma); Homo sapiens) of 1810 nM, a GI50 (SN12C (Renal); Homo sapiens) of 4.61 µM and a GI50 (HCT-116 (Colon); Homo sapiens) of 1180 nM. The GI50 (HOP-62 (Lung); Homo sapiens) was 200 nM, the GI50 (DU-145 (Prostate); Homo sapiens) was 550 nM and the GI50 (SF-539 (CNS)) was 680 nM. For the same compound, the “Body Weight %” value ([1]; 5 mg/Kg IV) was 92.4%, the “Body Weight %” value ([1]; 10 mg/Kg IV) was 95.2% and the “Body Weight %” value ([1]; 15 mg/Kg IV) was 87%. For the same compound, the “Body Weight %” value ([1]; 20 mg/Kg IV) was 83.3%, the “Body Weight %” value ([1]; 30 mg/Kg IV) was 88.8% and the “Body Weight %” value ([1]; 40 mg/Kg IV) was 78.8%. For the same compound, the “Maximum tolerated dose (MTD)” value [1] was 30 mg/kg, the Kp at 3 h (in vivo; NOD SCID, mouse, tumor and plasma, RS4;11, 3 h, IV 15 mg/kg, read-out: Mean Tumor/Plasma Ratio) was 76.1 ± 18.9 and the “Mean Tumor/Plasma Ratio” value (in vivo; RS4;11, 3 h, IV 30 mg/kg) was 77.3 ± 11.8. For the same compound, the “Mean Tumor/Plasma Ratio” value (in vivo; RS4;11, 9 h, IV 15 mg/kg) was 130 ± 32, the “Mean Tumor/Plasma Ratio” value (in vivo; RS4;11, 9 h, IV 30 mg/kg) was 112 ± 16 and the “% Recovery” value [2] was 83.58%. For the same compound, the “% Bound” value [2] was 81.21% and the “% Stability at 6 hrs” value [3] was 86.15%.
`COc1cc2c3c(n(CCCNCCO)c(=O)c2cc1OC)-c1nc2c(cc1C3=O)OCO2` [G105, 6-(3-((2-Hydroxyethyl)amino)propyl)-2,3-dimethoxy-5H-[1,3]dioxolo[4″,5″:5′,6′]pyrido[3′,2′:4,5]cyclopenta[1,2-c]isoquinoline-5,12(6H)-dione] gave a GI50 (NCI-60 cancer cell lines) of 2950 nM, a GI50 (MCF7 (Breast)) of 260 nM and a GI50 (MCF7 (Breast); Homo sapiens) of 260 nM. The GI50 (OVCAR-3 (Ovarian); Homo sapiens) was 5.65 µM, the GI50 (OVCAR-3 (Ovarian)) was 5.65 µM and the GI50 (UACC-62 (Melanoma); Homo sapiens) was 2380 nM. For the same compound, the GI50 (UACC-62 (Melanoma)) was 2380 nM, the GI50 (SN12C (Renal); Homo sapiens) was 3.94 µM and the GI50 (SN12C (Renal)) was 3.94 µM. The GI50 (HCT-116 (Colon)) was 1250 nM, the GI50 (HCT-116 (Colon); Homo sapiens) was 1250 nM and the GI50 (HOP-62 (Lung); Homo sapiens) was 420 nM. The GI50 (HOP-62 (Lung)) was 420 nM, the GI50 (DU-145 (Prostate); Homo sapiens) was 2710 nM and the GI50 (DU-145 (Prostate)) was 2710 nM. The GI50 (SF-539 (CNS)) was 1000 nM, the “Body Weight %” value ([1]; 5 mg/Kg IV) was 97.2% and the “Body Weight %” value ([1]; 10 mg/Kg IV) was 95.5%. The “Body Weight %” value ([1]; 15 mg/Kg IV) was 79.2%, the “Body Weight %” value ([1]; 20 mg/Kg IV) was 82% and the “Body Weight %” value ([1]; 30 mg/Kg IV) was 74.7%. The “Maximum tolerated dose (MTD)” value [1] was 20 mg/kg, the “Mean Tumor/Plasma Ratio” value (in vivo; RS4;11, 3 h, IV 10 mg/kg) was 62.3 ± 17.7 and the “Mean Tumor/Plasma Ratio” value (in vivo; RS4;11, 3 h, IV 20 mg/kg) was 111 ± 18. For the same compound, the “Mean Tumor/Plasma Ratio” value (in vivo; RS4;11, 9 h, IV 10 mg/kg) was 185 ± 25, the “Mean Tumor/Plasma Ratio” value (in vivo; RS4;11, 9 h, IV 20 mg/kg) was 383 ± 183 and the “% Recovery” value [2] was 99.38%. For the same compound, the “% Bound” value [2] was 80.88% and the “% Stability at 6 hrs” value [3] was 95.42%.
In the case of `COc1cc2c3c(n(CCCNC(C)C)c(=O)c2cc1OC)-c1nc2c(cc1C3=O)OCO2` [G103, 6-(3-(Isopropylamino)propyl)-2,3-dimethoxy-5H-[1,3]dioxolo [4″,5″:5′,6′]pyrido[3′,2′:4,5]cyclopenta[1,2-c]isoquinoline-5,12(6H)-dione], the GI50 (NCI-60 cancer cell lines) is reported as 2190 nM, the GI50 (MCF7 (Breast); Homo sapiens) is reported as 100 nM and the GI50 (OVCAR-3 (Ovarian); Homo sapiens) is reported as 14.3 µM. For the same compound, the GI50 (UACC-62 (Melanoma); Homo sapiens) was 9840 nM, the GI50 (SN12C (Renal); Homo sapiens) was 10.6 µM and the GI50 (HCT-116 (Colon); Homo sapiens) was 1040 nM. The GI50 (HOP-62 (Lung); Homo sapiens) was 470 nM, the GI50 (DU-145 (Prostate); Homo sapiens) was 1050 nM and the GI50 (SF-539 (CNS)) was 1520 nM. The “Body Weight %” value ([1]; 5 mg/Kg IV) was 92.4%, the “Body Weight %” value ([1]; 10 mg/Kg IV) was 93% and the “Body Weight %” value ([1]; 15 mg/Kg IV) was 93.9%. For the same compound, the “Body Weight %” value ([1]; 20 mg/Kg IV) was 86%, the “Body Weight %” value ([1]; 30 mg/Kg IV) was 85.1% and the “Body Weight %” value ([1]; 40 mg/Kg IV) was 85.3%. The “Body Weight %” value ([1]; 50 mg/Kg IV) was 86.6%, the “Body Weight %” value ([1]; 60 mg/Kg IV) was 74% and the “Maximum tolerated dose (MTD)” value [1] was 50 mg/kg. The “% Recovery” value [2] was 88.05%, the “% Bound” value [2] was 82.60% and the “% Stability at 6 hrs” value [3] was 94.96%.
